Values of other authors in patent EP3290412A1, “HIV-1 NUCLEOCAPSID INHIBITORS” (Università degli Studi di Siena, priority 2016, dated 2018).
Marks after values point to notes of the source that are not given here.

Tests used:
[1] = system: NIH Catalogue Number: 7401; settings: cited from earlier work; for Level of resistance: NRTI resistant strain 7401; for Fold change: strain 7401, resistant virus IC50 to wild-type reference virus IC50 ratio, cut-off in brackets
[2] = system: NIH Catalogue Number: 7400; settings: cited from earlier work; for Level of resistance: NRTI resistant strain 7400; for Fold change: strain 7400, resistant virus IC50 to wild-type reference virus IC50 ratio, cut-off in brackets
[3] = system: NIH Catalogue Number: 11808; settings: cited from earlier work; for Level of resistance: PI resistant strain 11808; for Fold change: strain 11808, resistant virus IC50 to wild-type reference virus IC50 ratio, cut-off in brackets
[4] = system: NIH Catalogue Number: 12465; settings: cited from earlier work; for Level of resistance: PI resistant strain 12465; for Fold change: strain 12465, resistant virus IC50 to wild-type reference virus IC50 ratio, cut-off in brackets
[5] = system: NIH Catalogue Number: 12231; settings: cited from earlier work; for Level of resistance: NNRTI resistant strain 12231; for Fold change: strain 12231, resistant virus IC50 to wild-type reference virus IC50 ratio, cut-off in brackets
[6] = system: NIH Catalogue Number: 12229; settings: cited from earlier work; for Level of resistance: NNRTI resistant strain 12229; for Fold change: strain 12229, resistant virus IC50 to wild-type reference virus IC50 ratio, cut-off in brackets
[7] = system: NIH Catalogue Number: 11845; settings: INI resistant strain 11845; cited from earlier work

**Q.** With Nc1nc(NC2CC2)c2ncn([C@H]3C=C[C@@H](CO)C3)c2n1 [Abacavir] as the compound, how does the Level of resistance [1] read?
**A.** High resistance

**Q.** What about the Fold change [1] of the same compound?
**A.** 7.4 (4.5^c)

**Q.** And the Level of resistance [2]?
**A.** High resistance

**Q.** What about the Fold change [2] of the same compound?
**A.** 7.7 (4.5^c)

**Q.** Which Level of resistance [3] does the source give for COC(=O)N[C@H](C(=O)N[C@@H](Cc1ccccc1)[C@@H](O)CN(Cc1ccc(-c2ccccn2)cc1)NC(=O)[C@@H](NC(=O)OC)C(C)(C)C)C(C)(C)C [Atazanavir] here?
**A.** High resistance

**Q.** And the Fold change [3]?
**A.** 90 (2.2^c)

**Q.** And the Level of resistance [4]?
**A.** High resistance

**Q.** And the Fold change [4]?
**A.** 110 (2.2^c)

**Q.** What does the source list for CC(C)CN(C[C@@H](O)[C@H](Cc1ccccc1)NC(=O)O[C@H]1CO[C@H]2OCC[C@H]21)S(=O)(=O)c1ccc(N)cc1 [Darunavir]?
**A.** Level of resistance [3]: High resistance; Fold change [3]: 127 (10^c); Level of resistance [4]: Susceptible; Fold change [4]: 5.2 (10^c)

**Q.** With O=C1Nc2ccc(Cl)cc2[C@@](C#CC2CC2)(C(F)(F)F)O1 [Efavirenz] as the compound, how does the Level of resistance [5] read?
**A.** High resistance

**Q.** What about the Fold change [5] of the same compound?
**A.** 90 (3^b)

**Q.** What about the Level of resistance [6] of the same compound?
**A.** High resistance

**Q.** And the Fold change [6]?
**A.** >200 (3^b)

**Q.** With COc1cc2c(cc1Cc1cccc(Cl)c1F)c(=O)c(C(=O)O)cn2[C@H](CO)C(C)C [Elvitegravir™, Elvitegravir] as the compound, how does the Level of resistance [7] read?
**A.** Intermediate

**Q.** What does the source list for Nc1nc(=O)n([C@@H]2CS[C@H](CO)O2)cc1F [Emtricitabine]?
**A.** Level of resistance [1]: High resistance; Fold change [1]: >200 (3.5^c); Level of resistance [2]: High resistance; Fold change [2]: >200 (3.5^c)

**Q.** Which results are given for Cc1cc(C#N)cc(C)c1Oc1nc(Nc2ccc(C#N)cc2)nc(N)c1Br [Etravirine]?
**A.** Level of resistance [5]: High resistance; Fold change [5]: 8.8 (2.9^c); Level of resistance [6]: High resistance; Fold change [6]: 6.8 (2.9^c)

**Q.** With Cc1cccc(C)c1OCC(=O)N[C@@H](Cc1ccccc1)[C@@H](O)C[C@H](Cc1ccccc1)NC(=O)[C@H](C(C)C)N1CCCNC1=O [Lopinavir] as the compound, how does the Level of resistance [3] read?
**A.** High resistance

**Q.** What about the Fold change [3] of the same compound?
**A.** 70 (10^c)

**Q.** What about the Level of resistance [4] of the same compound?
**A.** Intermediate resistance

**Q.** What about the Fold change [4] of the same compound?
**A.** 36 (10^c)

**Q.** With Cc1ccnc2c1NC(=O)c1cccnc1N2C1CC1 [Nevirapine] as the compound, how does the Level of resistance [5] read?
**A.** High resistance

**Q.** What about the Fold change [5] of the same compound?
**A.** >200 (4.5^b)

**Q.** What about the Level of resistance [6] of the same compound?
**A.** High resistance

**Q.** What about the Fold change [6] of the same compound?
**A.** >200 (4.5^b)

**Q.** For C[C@H](Cn1cnc2c(N)ncnc21)OCP(=O)(O)O [Tenofovir], which Level of resistance [1] is on record?
**A.** High resistance

**Q.** And the Fold change [1]?
**A.** 1.5 (1.4^c)

**Q.** And the Level of resistance [2]?
**A.** High resistance

**Q.** What about the Fold change [2] of the same compound?
**A.** 2.3 (1.4^c)

**Q.** With Cc1cn([C@H]2C[C@H](N=[N+]=[N-])[C@@H](CO)O2)c(=O)[nH]c1=O [Zidovudine] as the compound, how does the Level of resistance [1] read?
**A.** High resistance

**Q.** What about the Fold change [1] of the same compound?
**A.** 24 (1.9^b)

**Q.** And the Level of resistance [2]?
**A.** High resistance

**Q.** What about the Fold change [2] of the same compound?
**A.** 61 (1.9^b)
